According to patent US20080063704A1, “Stable gabapentin compositions” (priority 2004, published 2008):

How the values were obtained:
Type in all cases: physicochemical
[1] = Pre-formulation excipient compatibility study: Appearance
Text: (§1) All the ingredients were passed through 20 mesh screen and blended together. The results of all the pre-formulation compatibility studies are given in Tables 25 to 39, including comparative results for the drug substance (Table 39) and UK reference product (Table 38) as controls.
(§2) Aim: To carry out preformulation excipient compatibility studies for Gabapentin capsules
(§3) Binary mixtures to be evaluated (with and without water as necessary):
(§4) 1. Drug and diluents (1:0.5)
(§5) 2. Drug and lubricants(1:0.1)
(§6) 3. Drug and solubilizer (1:0.001)
(§7) 4. Proposed formulation from the in vitro formulation trials to confirm the extent of interactions and identify suitably stable formulations.
(§8) Where humidity controls are not available a defined amount of water may be added to the samples. Storage of samples was in petridishes and in stoppered glass vials.
(§9) The following tests were performed at each interval:
(§10) The following tests were performed at 14 and 28 day intervals.

[2] = Pre-formulation excipient compatibility study: HPLC assay
Text: as §1, §2, §3, §4, §5, §6, §7, §8, §9
2. HPLC assay (as for HPLC related substances assay but calibrated for gabapentin resolution rather than for related substances)

[3] = Pre-formulation excipient compatibility study: HPLC assay for related substances
Text: HPLC Assay for Related Substances
as §1, §2, §3, §4, §5, §6, §7
Significant degradation is defined as
1. >0.5% w/w formation of lactam degradation product at conditions up to 40° C./75% RH.
2. Formation of other degradants at levels >0.1% w/w.
3. Greater relative instability of mixture or formulation to Gabapentin drug substance and Neurotonin capsules.
as §8, §10
3. HPLC assay for related substances

For `NCC1(CC(=O)O)CCCCC1` [Gabapentin], the Description ([1]; 25° C./60% RH, 3 days) was “White”, the Description ([1]; 25° C./60% RH, 7 days) was “White” and the Description ([1]; 25° C./60% RH, 14 days) was “White”. For the same molecule, the Description ([1]; 25° C./60% RH, 28 days) was “White”, the Description ([1]; 40° C./75% RH, 3 days) was “White” and the Description ([1]; 40° C./75% RH, 7 days) was “White”. The Description ([1]; 40° C./75% RH, 14 days) was “White”, the Description ([1]; 40° C./75% RH, 28 days) was “White” and the Description ([1]; 50° C., 3 days) was “White”. The Description ([1]; 50° C., 7 days) was “White”, the Description ([1]; 50° C., 14 days) was “White” and the Description ([1]; 50° C., 28 days) was “White”. The Description ([1]; Initial) was “White”, the Assay ([2]; 25° C./60% RH, 7 days) was 98.6% and the Assay ([2]; 25° C./60% RH, 14 days) was 98.6%. It also gave an Assay ([2]; 25° C./60% RH, 28 days) of 98.51%, an Assay ([2]; 40° C./75% RH, 7 days) of 98.53% and an Assay ([2]; 40° C./75% RH, 14 days) of 98.4%. It also gave an Assay ([2]; 40° C./75% RH, 28 days) of 97.79%, an Assay ([2]; 50° C., 7 days) of 98.5% and an Assay ([2]; 50° C., 14 days) of 98.5%. The Assay ([2]; 50° C., 28 days) was 98.1%, the Assay ([2]; Initial) was 99.4% and the “Impurities a) Lactam content” value ([3]; 25° C./60% RH, 14 days) was “Nil”. The “Impurities b) Single largest individual Impurities” value ([3]; 25° C./60% RH, 14 days) was “Nil”, the “Impurities c) Total other Impurities” value ([3]; 25° C./60% RH, 14 days) was “Nil” and the “Impurities d) Total Impurities” value ([3]; 25° C./60% RH, 14 days) was “Nil”. The “Impurities a) Lactam content” value ([3]; 25° C./60% RH, 28 days) was “Nil”, the “Impurities b) Single largest individual Impurities” value ([3]; 25° C./60% RH, 28 days) was “Nil” and the “Impurities c) Total other Impurities” value ([3]; 25° C./60% RH, 28 days) was “Nil”. For the same molecule, the “Impurities d) Total Impurities” value ([3]; 25° C./60% RH, 28 days) was “Nil”, the “Impurities a) Lactam content” value ([3]; 40° C./75% RH, 14 days) was “Nil” and the “Impurities b) Single largest individual Impurities” value ([3]; 40° C./75% RH, 14 days) was “Nil”. The “Impurities c) Total other Impurities” value ([3]; 40° C./75% RH, 14 days) was “Nil”, the “Impurities d) Total Impurities” value ([3]; 40° C./75% RH, 14 days) was “Nil” and the “Impurities a) Lactam content” value ([3]; 40° C./75% RH, 28 days) was “Nil”. The “Impurities b) Single largest individual Impurities” value ([3]; 40° C./75% RH, 28 days) was “Nil”, the “Impurities c) Total other Impurities” value ([3]; 40° C./75% RH, 28 days) was “Nil” and the “Impurities d) Total Impurities” value ([3]; 40° C./75% RH, 28 days) was “Nil”. For the same molecule, the “Impurities a) Lactam content” value ([3]; 50° C., 14 days) was 0.004%, the “Impurities b) Single largest individual Impurities” value ([3]; 50° C., 14 days) was “Nil” and the “Impurities c) Total other Impurities” value ([3]; 50° C., 14 days) was “Nil”. For the same molecule, the “Impurities d) Total Impurities” value ([3]; 50° C., 14 days) was “Nil”, the “Impurities a) Lactam content” value ([3]; 50° C., 28 days) was 0.004% and the “Impurities b) Single largest individual Impurities” value ([3]; 50° C., 28 days) was “Nil”. The “Impurities c) Total other Impurities” value ([3]; 50° C., 28 days) was “Nil”, the “Impurities d) Total Impurities” value ([3]; 50° C., 28 days) was “Nil” and the “Impurities a) Lactam content” value ([3]; Initial) was “Nil”. For the same molecule, the “Impurities b) Single largest individual Impurities” value ([3]; Initial) was “Nil”, the “Impurities c) Total other Impurities” value ([3]; Initial) was “Nil” and the “Impurities d) Total Impurities” value ([3]; Initial) was “Nil”.
